Columns and labels:
Assay in all cases: KINOMEscan competition binding
Details in all cases: compound 10.0 µM
[1] = target: INSR (human) (UniProt P06213)
[2] = system: ABL1 (human), P00519 [Q252H]
[3] = target: MAPK1 (human) (UniProt P28482)
[4] = target: MAPK12 (human) (UniProt P53778)
[5] = target: PRKG2 (human) (UniProt Q13237)
[6] = target: DCLK1 (human) (UniProt O15075)
[7] = target: PIK3C2G (human) (UniProt O75747)
[8] = target: CDC42BPA (human) (UniProt Q5VT25)
[9] = target: MAP3K2 (human) (UniProt Q9Y2U5)
[10] = target: ACVR2A (human) (UniProt P27037)
[11] = target: CSNK1G1 (human) (UniProt Q9HCP0)
[12] = target: STK17B (human) (UniProt O94768)
Chain of STK17B (human) (O94768 whole entry, looked up): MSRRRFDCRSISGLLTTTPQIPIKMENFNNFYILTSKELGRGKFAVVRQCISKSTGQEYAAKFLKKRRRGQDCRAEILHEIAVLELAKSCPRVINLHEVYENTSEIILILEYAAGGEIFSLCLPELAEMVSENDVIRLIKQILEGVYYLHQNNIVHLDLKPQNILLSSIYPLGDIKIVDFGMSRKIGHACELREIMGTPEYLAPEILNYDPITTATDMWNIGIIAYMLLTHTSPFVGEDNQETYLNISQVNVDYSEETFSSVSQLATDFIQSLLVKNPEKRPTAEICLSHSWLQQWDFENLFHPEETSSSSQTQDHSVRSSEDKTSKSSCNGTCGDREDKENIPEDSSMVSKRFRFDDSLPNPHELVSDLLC

[13] = target: PIP4K2B (human) (UniProt P78356)
[14] = target: CDK17 (human) (UniProt Q00537)
[15] = system: PIK3CA (human), P42336 [M1043I]
Chain of PIK3CA (human), P42336 [M1043I] (P42336 whole entry M1043I, looked up): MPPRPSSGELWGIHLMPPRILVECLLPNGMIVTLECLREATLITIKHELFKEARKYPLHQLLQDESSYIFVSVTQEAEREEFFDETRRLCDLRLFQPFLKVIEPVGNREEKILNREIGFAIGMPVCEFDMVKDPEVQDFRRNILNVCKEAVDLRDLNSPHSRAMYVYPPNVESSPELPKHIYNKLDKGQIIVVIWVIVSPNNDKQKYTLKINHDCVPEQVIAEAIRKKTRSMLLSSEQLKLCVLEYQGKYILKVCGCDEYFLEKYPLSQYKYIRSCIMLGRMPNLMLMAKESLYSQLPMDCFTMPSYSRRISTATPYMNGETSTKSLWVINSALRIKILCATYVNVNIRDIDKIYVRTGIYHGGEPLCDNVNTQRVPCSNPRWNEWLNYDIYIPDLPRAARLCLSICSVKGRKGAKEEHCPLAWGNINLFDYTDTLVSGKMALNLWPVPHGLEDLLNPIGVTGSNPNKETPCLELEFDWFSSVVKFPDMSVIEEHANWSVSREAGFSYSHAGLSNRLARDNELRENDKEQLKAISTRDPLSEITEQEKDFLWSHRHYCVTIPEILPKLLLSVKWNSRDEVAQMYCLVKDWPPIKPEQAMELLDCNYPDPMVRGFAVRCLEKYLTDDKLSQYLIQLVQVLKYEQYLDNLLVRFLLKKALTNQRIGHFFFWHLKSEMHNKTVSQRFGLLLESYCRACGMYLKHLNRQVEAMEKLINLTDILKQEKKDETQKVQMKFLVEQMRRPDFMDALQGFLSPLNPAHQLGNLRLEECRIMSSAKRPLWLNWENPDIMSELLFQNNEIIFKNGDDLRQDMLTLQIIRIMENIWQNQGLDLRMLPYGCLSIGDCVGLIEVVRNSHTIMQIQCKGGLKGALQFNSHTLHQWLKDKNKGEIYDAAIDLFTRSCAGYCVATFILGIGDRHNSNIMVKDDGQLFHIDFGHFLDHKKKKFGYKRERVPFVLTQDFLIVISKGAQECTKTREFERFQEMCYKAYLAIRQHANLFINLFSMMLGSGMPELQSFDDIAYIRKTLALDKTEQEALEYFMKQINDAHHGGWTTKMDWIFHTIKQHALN

[16] = target: EIF2AK2 (human) (UniProt P19525)
Chain of EIF2AK2 (human) (P19525 whole entry, looked up): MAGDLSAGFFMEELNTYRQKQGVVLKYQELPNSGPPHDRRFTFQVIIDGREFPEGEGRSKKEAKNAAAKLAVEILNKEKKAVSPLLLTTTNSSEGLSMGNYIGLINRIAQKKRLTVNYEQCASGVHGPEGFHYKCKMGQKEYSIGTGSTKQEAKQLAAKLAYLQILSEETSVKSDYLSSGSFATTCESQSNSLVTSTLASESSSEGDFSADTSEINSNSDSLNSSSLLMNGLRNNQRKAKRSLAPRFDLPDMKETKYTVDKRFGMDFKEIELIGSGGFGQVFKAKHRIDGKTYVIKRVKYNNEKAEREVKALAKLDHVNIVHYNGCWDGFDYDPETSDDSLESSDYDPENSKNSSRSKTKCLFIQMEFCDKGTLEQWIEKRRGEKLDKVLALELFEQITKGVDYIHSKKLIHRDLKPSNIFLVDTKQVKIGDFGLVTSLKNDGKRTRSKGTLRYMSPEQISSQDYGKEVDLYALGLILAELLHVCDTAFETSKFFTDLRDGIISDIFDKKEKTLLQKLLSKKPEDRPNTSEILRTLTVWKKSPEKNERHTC

[17] = target: CAMK2B (human) (UniProt Q13554)
Chain of CAMK2B (human) (Q13554 whole entry, looked up): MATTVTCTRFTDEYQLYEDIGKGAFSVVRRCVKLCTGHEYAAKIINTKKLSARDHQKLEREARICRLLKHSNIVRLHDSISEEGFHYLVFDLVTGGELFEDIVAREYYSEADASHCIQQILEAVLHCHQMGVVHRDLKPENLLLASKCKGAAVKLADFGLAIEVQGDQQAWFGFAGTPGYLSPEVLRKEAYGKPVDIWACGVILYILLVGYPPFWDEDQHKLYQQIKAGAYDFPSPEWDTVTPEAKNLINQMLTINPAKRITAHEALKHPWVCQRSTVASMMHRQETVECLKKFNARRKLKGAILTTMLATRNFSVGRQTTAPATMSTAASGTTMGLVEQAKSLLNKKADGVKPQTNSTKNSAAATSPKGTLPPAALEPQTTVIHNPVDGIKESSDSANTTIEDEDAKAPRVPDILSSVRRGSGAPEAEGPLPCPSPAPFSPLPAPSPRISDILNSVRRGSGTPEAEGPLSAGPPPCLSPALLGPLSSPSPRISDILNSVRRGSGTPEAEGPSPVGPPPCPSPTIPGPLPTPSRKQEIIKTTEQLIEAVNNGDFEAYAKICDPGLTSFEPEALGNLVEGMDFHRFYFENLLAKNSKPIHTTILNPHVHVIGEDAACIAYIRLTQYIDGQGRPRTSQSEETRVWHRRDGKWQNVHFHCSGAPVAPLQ

[18] = target: PAK2 (human) (UniProt Q13177)
[19] = target: MAP4K2 (human) (UniProt Q12851)
[20] = target: MAP3K15 (human) (UniProt Q6ZN16)
[21] = target: ACVR1 (human) (UniProt Q04771)
[22] = target: FYN (human) (UniProt P06241)
[23] = target: LIMK2 (human) (UniProt P53671)
[24] = target: KDR (human) (UniProt P35968)
[25] = target: TYK2 JH1 catalytic (human) (UniProt P29597)
[26] = system: BRAF (human), P15056 [V600E]
[27] = target: NLK (human) (UniProt Q9UBE8)
[28] = target: PKN2 (human) (UniProt Q16513)
[29] = target: KIT (human) (UniProt P10721)
[30] = target: CDC42BPG (human) (UniProt Q6DT37)
[31] = target: DAPK2 (human) (UniProt Q9UIK4)
[32] = target: AKT2 (human) (UniProt P31751)
[33] = target: CAMK2A (human) (UniProt Q9UQM7)
Chain of CAMK2A (human) (Q9UQM7 whole entry, looked up): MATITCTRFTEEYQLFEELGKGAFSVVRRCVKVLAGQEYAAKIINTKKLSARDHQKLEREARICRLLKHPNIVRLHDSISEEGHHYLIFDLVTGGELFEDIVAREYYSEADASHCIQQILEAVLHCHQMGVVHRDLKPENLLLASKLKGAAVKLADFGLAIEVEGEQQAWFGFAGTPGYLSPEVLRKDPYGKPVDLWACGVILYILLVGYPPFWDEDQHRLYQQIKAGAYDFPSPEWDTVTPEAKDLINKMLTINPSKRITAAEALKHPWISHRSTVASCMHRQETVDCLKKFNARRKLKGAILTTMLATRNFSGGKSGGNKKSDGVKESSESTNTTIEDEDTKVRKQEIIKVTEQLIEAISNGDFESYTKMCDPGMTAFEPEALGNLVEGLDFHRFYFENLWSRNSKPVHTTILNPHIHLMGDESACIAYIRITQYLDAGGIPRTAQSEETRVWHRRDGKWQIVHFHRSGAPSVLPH

[34] = target: STK32C (human) (UniProt Q86UX6)
[35] = target: PRKAA1 (human) (UniProt Q13131)
[36] = target: PRKG1 (human) (UniProt Q13976)
[37] = target: HIPK1 (human) (UniProt Q86Z02)
[38] = target: IGF1R (human) (UniProt P08069)
[39] = target: PDGFRB (human) (UniProt P09619)
[40] = target: NEK6 (human) (UniProt Q9HC98)
Chain of NEK6 (human) (Q9HC98 whole entry, looked up): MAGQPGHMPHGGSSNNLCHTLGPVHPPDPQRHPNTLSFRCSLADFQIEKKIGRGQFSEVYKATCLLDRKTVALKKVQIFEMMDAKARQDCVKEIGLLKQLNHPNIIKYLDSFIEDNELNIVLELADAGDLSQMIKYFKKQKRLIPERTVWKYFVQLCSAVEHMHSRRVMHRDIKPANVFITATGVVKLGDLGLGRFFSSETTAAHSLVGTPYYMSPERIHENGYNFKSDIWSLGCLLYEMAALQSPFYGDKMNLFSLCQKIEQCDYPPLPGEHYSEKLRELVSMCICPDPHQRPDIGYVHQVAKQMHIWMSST

[41] = target: MAP3K5 (human) (UniProt Q99683)

Chain of MAPK1 (human) (P28482 whole entry, looked up): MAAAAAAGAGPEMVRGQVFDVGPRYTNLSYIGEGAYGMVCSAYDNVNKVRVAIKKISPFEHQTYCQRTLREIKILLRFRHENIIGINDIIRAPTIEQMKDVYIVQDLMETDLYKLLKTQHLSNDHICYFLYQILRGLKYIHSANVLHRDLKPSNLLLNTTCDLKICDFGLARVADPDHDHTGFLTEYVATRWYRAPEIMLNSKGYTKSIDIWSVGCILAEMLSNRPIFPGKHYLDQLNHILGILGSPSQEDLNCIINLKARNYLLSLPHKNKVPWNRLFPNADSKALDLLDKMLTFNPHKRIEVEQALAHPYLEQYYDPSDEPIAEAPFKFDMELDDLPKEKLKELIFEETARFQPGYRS
Chain of DCLK1 (human) (O15075 whole entry, looked up): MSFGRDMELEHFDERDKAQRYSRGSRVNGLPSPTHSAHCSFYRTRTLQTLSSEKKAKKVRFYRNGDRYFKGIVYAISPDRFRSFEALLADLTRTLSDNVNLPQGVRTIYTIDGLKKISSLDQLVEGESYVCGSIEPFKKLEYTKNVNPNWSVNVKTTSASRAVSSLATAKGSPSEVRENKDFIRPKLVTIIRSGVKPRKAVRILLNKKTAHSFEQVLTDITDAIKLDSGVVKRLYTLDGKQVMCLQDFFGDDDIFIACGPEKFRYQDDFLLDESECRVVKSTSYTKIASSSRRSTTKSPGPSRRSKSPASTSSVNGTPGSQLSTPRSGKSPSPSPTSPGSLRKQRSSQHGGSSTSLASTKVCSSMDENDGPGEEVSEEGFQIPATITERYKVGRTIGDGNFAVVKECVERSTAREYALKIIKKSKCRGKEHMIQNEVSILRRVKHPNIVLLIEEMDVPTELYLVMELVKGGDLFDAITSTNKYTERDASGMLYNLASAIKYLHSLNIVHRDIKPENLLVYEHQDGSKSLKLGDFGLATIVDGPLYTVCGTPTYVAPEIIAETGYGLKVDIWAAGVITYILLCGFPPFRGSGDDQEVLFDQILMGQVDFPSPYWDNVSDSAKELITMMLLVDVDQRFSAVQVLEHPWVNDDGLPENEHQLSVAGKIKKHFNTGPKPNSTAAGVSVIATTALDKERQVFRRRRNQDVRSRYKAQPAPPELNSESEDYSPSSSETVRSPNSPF
Chain of MAPK12 (human) (P53778 whole entry, looked up): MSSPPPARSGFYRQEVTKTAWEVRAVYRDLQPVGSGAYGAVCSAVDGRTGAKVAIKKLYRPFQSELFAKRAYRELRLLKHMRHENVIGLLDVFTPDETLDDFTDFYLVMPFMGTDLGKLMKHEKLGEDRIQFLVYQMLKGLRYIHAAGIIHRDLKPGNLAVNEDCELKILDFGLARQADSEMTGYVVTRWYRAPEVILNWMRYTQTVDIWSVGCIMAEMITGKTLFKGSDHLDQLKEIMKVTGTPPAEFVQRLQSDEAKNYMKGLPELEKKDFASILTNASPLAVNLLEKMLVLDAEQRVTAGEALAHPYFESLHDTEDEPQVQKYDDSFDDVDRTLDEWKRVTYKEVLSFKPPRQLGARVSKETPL

Cn1cc(C2=C(c3ccc(Cl)cc3Cl)C(=O)NC2=O)c2ccccc21
kinase still bound, per cent of control [1]: 91%
kinase still bound, per cent of control [2]: 100%
kinase still bound, per cent of control [3]: 100%
kinase still bound, per cent of control [4]: 100%
kinase still bound, per cent of control [5]: 73%
kinase still bound, per cent of control [6]: 100%
kinase still bound, per cent of control [7]: 94%
kinase still bound, per cent of control [8]: 100%
kinase still bound, per cent of control [9]: 100%
kinase still bound, per cent of control [10]: 79%
kinase still bound, per cent of control [11]: 81%
kinase still bound, per cent of control [12]: 100%
kinase still bound, per cent of control [13]: 86%
kinase still bound, per cent of control [14]: 12%
kinase still bound, per cent of control [15]: 100%
kinase still bound, per cent of control [16]: 81%
kinase still bound, per cent of control [17]: 55%
kinase still bound, per cent of control [18]: 61%
kinase still bound, per cent of control [19]: 100%
kinase still bound, per cent of control [20]: 100%
kinase still bound, per cent of control [21]: 100%
kinase still bound, per cent of control [22]: 96%
kinase still bound, per cent of control [23]: 96%
kinase still bound, per cent of control [24]: 100%
kinase still bound, per cent of control [25]: 100%
kinase still bound, per cent of control [26]: 78%
kinase still bound, per cent of control [27]: 92%
kinase still bound, per cent of control [28]: 100%
kinase still bound, per cent of control [29]: 79%
kinase still bound, per cent of control [30]: 100%
kinase still bound, per cent of control [31]: 67%
kinase still bound, per cent of control [32]: 100%
kinase still bound, per cent of control [33]: 36%
kinase still bound, per cent of control [34]: 94%
kinase still bound, per cent of control [35]: 61%
kinase still bound, per cent of control [36]: 61%
kinase still bound, per cent of control [37]: 5%
kinase still bound, per cent of control [38]: 95%
kinase still bound, per cent of control [39]: 82%
kinase still bound, per cent of control [40]: 91%
kinase still bound, per cent of control [41]: 100%

From the kinase profiling compilation of Christmann-Franck et al. (2016)
